Experimental data: US10428067B2, “Compounds and methods for kinase modulation” (Plexxikon Inc., priority 2017, dated 2019)

Key:
TGFβR2 = TGFβR2 (Homo sapiens, UniProt P37173); assay: Biochemical TGFβR2 assay (LanthaScreen Europium Kinase Binding Assay); conditions: geometric mean; tracer displacement, five concentrations 1.0-0.0039 μM in duplicate; read-out: TGFBR2 GMean: IC50 (μM) (Biochemical Assay)
Procedure: The IC50 of certain compounds in this disclosure against TGFβR2 was conducted under contract at Thermo Fisher Scientific, Life Sciences Solutions as part of their SelectScreen™ profiling service. The TGFβR2 assay used the LanthaScreen® Europium Kinase Binding Assay. Binding of an Alexa Fluor® conjugate Tracer 199 (100 nM) to TGFβR2 (5 nM) was detected by addition of a Eu-labeled anti-tag antibody (5 nM) in Kinase Buffer A (50 mM HEPES pH 7.5, 0.01% BRIJ-35, 10 mM MgCl2, 1 mM EGTA) and 1% final DMSO. […] The percent inhibition was calculated from the emission ratio of Alexa Fluor® and Europium as documented by Thermo Fisher (www.thermofisher.com/kinaseprofiling). The IC50 of certain compounds in this disclosure was determined by testing a dilution series of the compound in duplicate at five concentrations (1.0, 0.25, 0.062, 0.015 and 0.0039 μM) by fitting the inhibition data with a sigmoidal curve fit model.
Table II provides data indicating TGFBR2 biochemical inhibitory activities for exemplary compounds as described herein.

FLT3 D835Y = target: T1, FLT3 D835Y (Homo sapiens, UniProt P36888, D835Y); assay: Biochemical FLT3 D835Y assay; conditions: geometric mean; assay as in US2017/0267660; read-out: FLT3 D835Y GMean: IC50 (μM) (Biochemical Assay)
T1 sequence (P36888 27-993 D835Y): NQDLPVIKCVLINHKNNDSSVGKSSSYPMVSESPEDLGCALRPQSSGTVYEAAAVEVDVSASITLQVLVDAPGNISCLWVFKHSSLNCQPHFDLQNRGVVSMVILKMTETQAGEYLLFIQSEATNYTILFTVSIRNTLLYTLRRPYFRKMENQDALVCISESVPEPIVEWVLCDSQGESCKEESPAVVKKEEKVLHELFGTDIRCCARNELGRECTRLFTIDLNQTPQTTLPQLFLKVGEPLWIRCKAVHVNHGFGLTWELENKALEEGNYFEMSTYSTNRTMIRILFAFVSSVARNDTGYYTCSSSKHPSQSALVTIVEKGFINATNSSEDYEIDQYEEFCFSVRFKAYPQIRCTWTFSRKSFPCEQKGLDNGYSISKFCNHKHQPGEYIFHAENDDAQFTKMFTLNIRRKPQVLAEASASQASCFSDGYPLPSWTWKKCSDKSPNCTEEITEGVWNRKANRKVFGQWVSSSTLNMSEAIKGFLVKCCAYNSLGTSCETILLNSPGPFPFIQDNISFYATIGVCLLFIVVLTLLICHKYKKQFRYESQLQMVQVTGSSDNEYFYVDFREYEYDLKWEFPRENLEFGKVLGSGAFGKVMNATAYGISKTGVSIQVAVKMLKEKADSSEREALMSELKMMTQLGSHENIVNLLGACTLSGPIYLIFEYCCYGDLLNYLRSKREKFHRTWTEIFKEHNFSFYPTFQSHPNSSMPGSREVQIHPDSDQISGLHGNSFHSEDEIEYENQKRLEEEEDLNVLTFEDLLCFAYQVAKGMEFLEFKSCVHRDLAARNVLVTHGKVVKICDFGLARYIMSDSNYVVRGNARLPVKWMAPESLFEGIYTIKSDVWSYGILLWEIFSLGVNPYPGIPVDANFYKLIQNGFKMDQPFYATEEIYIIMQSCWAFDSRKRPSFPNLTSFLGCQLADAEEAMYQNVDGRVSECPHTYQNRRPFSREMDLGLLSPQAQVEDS
Procedure: FLT3 D835Y assays were conducted on certain compounds of this disclosure as described in U.S. Patent Publication No. US2017/0267660.
Table II provides data indicating FLT3 D835Y biochemical inhibitory activities for exemplary compounds as described herein.

[1] = tested on: quizartinib resistance-causing mutants of FLT3-ITD; conditions: all identified quizartinib resistance-causing mutants and other mutant isoforms (Smith et al.); cited from earlier work

TGFβR2, sequence (P37173 23-567): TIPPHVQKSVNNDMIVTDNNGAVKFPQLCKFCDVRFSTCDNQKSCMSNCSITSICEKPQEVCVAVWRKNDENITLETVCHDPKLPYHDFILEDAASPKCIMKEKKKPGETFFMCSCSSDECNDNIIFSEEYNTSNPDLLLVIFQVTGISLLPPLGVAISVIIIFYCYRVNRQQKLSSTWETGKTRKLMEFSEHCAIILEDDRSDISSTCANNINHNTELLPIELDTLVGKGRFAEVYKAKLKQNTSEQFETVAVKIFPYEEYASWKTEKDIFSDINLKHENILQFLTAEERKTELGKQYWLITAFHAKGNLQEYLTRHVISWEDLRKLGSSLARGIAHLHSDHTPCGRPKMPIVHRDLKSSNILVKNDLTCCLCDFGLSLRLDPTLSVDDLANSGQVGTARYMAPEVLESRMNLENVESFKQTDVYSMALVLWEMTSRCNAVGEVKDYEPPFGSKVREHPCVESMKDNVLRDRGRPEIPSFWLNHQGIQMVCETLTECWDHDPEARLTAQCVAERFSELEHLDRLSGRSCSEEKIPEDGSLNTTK

Row | Structure (SMILES) | IC50 (TGFβR2) [µM] | IC50 (FLT3 D835Y) [µM] | activity against quizartinib resistance-causing mutants [1]
1 | CC(C)(O)CNC(=O)c1cccc(-c2cnc3[nH]c(-c4cnn(C(F)F)c4)cc3c2)n1 [P-011, 6-(2-(1-(difluoromethyl)-1H-pyrazol-4-yl)-1H-pyrrolo[2,3-b]pyridin-5-yl)-N-(2-hydroxy-2-methylpropyl)picolinamide] | 0.0001 to 10 | 0.0001 to 10 | –
2 | N#CC1(NC(=O)c2cccc(-c3cnc4[nH]c(-c5cnn(C(F)F)c5)cc4c3)n2)CC1 [P-006, N-(1-cyanocyclopropyl)-6-(2-(1-(difluoromethyl)-1H-pyrazol-4-yl)-1H-pyrrolo[2,3-b]pyridin-5-yl)picolinamide] | 0.0001 to 10 | 0.0001 to 10 | –
3 | O=C(NC1COC1)c1cccc(-c2cnc3[nH]c(-c4cnn(C(F)F)c4)cc3c2)n1 [P-014, 6-(2-(1-(difluoromethyl)-1H-pyrazol-4-yl)-1H-pyrrolo[2,3-b]pyridin-5-yl)-N-(oxetan-3-yl)picolinamide] | 0.0001 to 10 | 0.0001 to 10 | –
4 | O=C(Nc1cnc[nH]1)c1cccc(-c2cnc3[nH]c(-c4cnn(C(F)F)c4)cc3c2)n1 [P-017, 6-(2-(1-(difluoromethyl)-1H-pyrazol-4-yl)-1H-pyrrolo[2,3-b]pyridin-5-yl)-N-(1H-imidazol-5-yl)picolinamide] | 0.0001 to 10 | 0.0001 to 10 | –
5 | CC(C)(C#N)NC(=O)c1cccc(-c2cnc3[nH]c(-c4cnn(C(F)F)c4)c(F)c3c2)n1 [P-004, N-(1-cyano-1-methyl-ethyl)-6-[2-[1-(difluoromethyl)pyrazol-4-yl]-3-fluoro-1H-pyrrolo[2,3-b]pyridin-5-yl]pyridine-2-carboxamide] | 0.0001 to 10 | 0.0001 to 10 | –
6 | CC(C)(C#N)NC(=O)c1cc(F)cc(-c2cnc3[nH]c(-c4cnn(C(F)F)c4)cc3c2)n1 [P-024, N-(2-cyanopropan-2-yl)-6-(2-(1-(difluoromethyl)-1H-pyrazol-4-yl)-1H-pyrrolo[2,3-b]pyridin-5-yl)-4-fluoropicolinamide] | 0.0001 to 10 | 0.0001 to 10 | –
7 | O=C(NC1CS(=O)(=O)C1)c1cccc(-c2cnc3[nH]c(-c4cnn(C(F)F)c4)cc3c2)n1 [P-010, 6-(2-(1-(difluoromethyl)-1H-pyrazol-4-yl)-1H-pyrrolo[2,3-b]pyridin-5-yl)-N-(1,1-dioxidothietan-3-yl)picolinamide] | 0.0001 to 10 | 0.0001 to 10 | –
8 | CNC(=O)c1cc(Oc2ccc(NC(=O)Nc3ccc(Cl)c(C(F)(F)F)c3)cc2)ccn1 [sorafenib] | – | – | ineffective
9 | CC(C)(C#N)NC(=O)c1cccc(-c2cnc3[nH]c(-c4cnn(CC#N)c4)cc3c2)n1 [P-001, 6-(2-(1-(cyanomethyl)-1H-pyrazol-4-yl)-1H-pyrrolo[2,3-b]pyridin-5-yl)-N-(2-cyanopropan-2-yl)picolinamide] | 0.0001 to 10 | 0.0001 to 10 | –

Second part, led by results:

Row | IC50 (TGFβR2) [µM] | IC50 (FLT3 D835Y) [µM] | Structure (SMILES) | activity against quizartinib resistance-causing mutants [1]
10 | 0.0001 to 10 | 0.0001 to 10 | O=C(NCC1(O)CCC1)c1cccc(-c2cnc3[nH]c(-c4cnn(C(F)F)c4)cc3c2)n1 [P-013, 6-(2-(1-(difluoromethyl)-1H-pyrazol-4-yl)-1H-pyrrolo[2,3-b]pyridin-5-yl)-N-((1-hydroxycyclobutyl)methyl)picolinamide] | –
11 | 0.0001 to 10 | 0.0001 to 10 | O=C(Nc1ncc[nH]1)c1cccc(-c2cnc3[nH]c(-c4cnn(C(F)F)c4)cc3c2)n1 [P-016, 6-(2-(1-(difluoromethyl)-1H-pyrazol-4-yl)-1H-pyrrolo[2,3-b]pyridin-5-yl)-N-(1H-imidazol-2-yl)picolinamide] | –
12 | 0.0001 to 10 | 0.0001 to 10 | O=C(NCC1(O)CC1)c1cccc(-c2cnc3[nH]c(-c4cnn(C(F)F)c4)cc3c2)n1 [P-012, 6-(2-(1-(difluoromethyl)-1H-pyrazol-4-yl)-1H-pyrrolo[2,3-b]pyridin-5-yl)-N-((1-hydroxycyclopropyl)methyl)picolinamide] | –
13 | 0.0001 to 10 | 0.0001 to 10 | O=C(Nc1ccn[nH]1)c1cccc(-c2cnc3[nH]c(-c4cnn(C(F)F)c4)cc3c2)n1 [P-018, 6-(2-(1-(difluoromethyl)-1H-pyrazol-4-yl)-1H-pyrrolo[2,3-b]pyridin-5-yl)-N-(1H-pyrazol-5-yl)picolinamide] | –
14 | 0.0001 to 10 | 0.0001 to 10 | CC(C)(C#N)NC(=O)c1cccc(-c2cnc3[nH]c(-c4c(F)nn(C(F)F)c4F)c(F)c3c2)n1 [P-003, N-(1-cyano-1-methyl-ethyl)-6-[2-[1-(difluoromethyl)-3,5-difluoro-pyrazol-4-yl]-3-fluoro-1H-pyrrolo[2,3-b]pyridin-5-yl]pyridine-2-carboxamide] | –
15 | 0.0001 to 10 | 0.0001 to 10 | CC(C)(C#N)NC(=O)c1cccc(-c2cnc3[nH]c(-c4cnn(C(F)F)c4)c(Br)c3c2)n1 [P-005, 6-[3-bromo-2-[1-(difluoromethyl)pyrazol-4-yl]-1H-pyrrolo[2,3-b]pyridin-5-yl]-N-(1-cyano-1-methyl-ethyl)pyridine-2-carboxamide] | –
16 | 0.0001 to 10 | 0.0001 to 10 | N#CC1(CNC(=O)c2cccc(-c3cnc4[nH]c(-c5cnn(C(F)F)c5)cc4c3)n2)CC1 [P-008, N-((1-cyanocyclopropyl)methyl)-6-(2-(1-(difluoromethyl)-1H-pyrazol-4-yl)-1H-pyrrolo[2,3-b]pyridin-5-yl)picolinamide] | –
17 | 0.0001 to 10 | 0.0001 to 10 | N#CC1(NC(=O)c2cccc(-c3cnc4[nH]c(-c5cnn(C(F)F)c5)cc4c3)n2)CCC1 [P-007, N-(1-cyanocyclobutyl)-6-(2-(1-(difluoromethyl)-1H-pyrazol-4-yl)-1H-pyrrolo[2,3-b]pyridin-5-yl)picolinamide] | –
18 | 0.0001 to 10 | 0.0001 to 10 | CN1CC(NC(=O)c2cccc(-c3cnc4[nH]c(-c5cnn(C(F)F)c5)cc4c3)n2)C1 [P-015, 6-(2-(1-(difluoromethyl)-1H-pyrazol-4-yl)-1H-pyrrolo[2,3-b]pyridin-5-yl)-N-(1-methylazetidin-3-yl)picolinamide] | –
19 | 0.0001 to 10 | 0.0001 to 10 | O=C(NC1CC(O)C1)c1cccc(-c2cnc3[nH]c(-c4cnn(C(F)F)c4)cc3c2)n1 (centres unmarked) [P-009, 6-(2-(1-(difluoromethyl)-1H-pyrazol-4-yl)-1H-pyrrolo[2,3-b]pyridin-5-yl)-N-(3-hydroxycyclobutyl)picolinamide] | –
20 | 0.0001 to 10 | 0.0001 to 10 | O=C(Nc1nnc[nH]1)c1cccc(-c2cnc3[nH]c(-c4cnn(C(F)F)c4)cc3c2)n1 [P-019, 6-(2-(1-(difluoromethyl)-1H-pyrazol-4-yl)-1H-pyrrolo[2,3-b]pyridin-5-yl)-N-(4H-1,2,4-triazol-3-yl)picolinamide] | –
21 | 0.0001 to 10 | 0.0001 to 10 | CC(C)(C#N)NC(=O)c1cncc(-c2cnc3[nH]c(-c4cnn(C(F)F)c4)cc3c2)n1 [P-021, N-(2-cyanopropan-2-yl)-6-(2-(1-(difluoromethyl)-1H-pyrazol-4-yl)-1H-pyrrolo[2,3-b]pyridin-5-yl)pyrazine-2-carboxamide] | –
